Assay results from ChEMBL document CHEMBL4041506, “Urea-containing peptide boronic acids as potent proteasome inhibitors” (Eur J Med Chem, 2017).

Tests used:
[1] = Volume of distribution in Sprague-Dawley rat plasma at 3 mg/kg, iv administered as bolus after 24 hrs by LC/MS/MS analysis; assay type: ADME, organism-based
[2] = Clearance in Sprague-Dawley rat plasma at 3 mg/kg, iv administered as bolus after 24 hrs by LC/MS/MS analysis; assay type: ADME, organism-based
BEL-7404 tumor cell line [3] = experiment: Antitumor activity against human Bel7404 cells xenografted in BALB/c nude mouse assessed as effect on tumor volume at 1 mg/kg, iv administered once in two days for 24 consecutive days measured on day 6 of compound dosing relative to control; assay type: functional
BEL-7404 tumor cell line [4] = experiment: Antitumor activity against human Bel7404 cells xenografted in BALB/c nude mouse assessed as effect on tumor volume at 0.5 mg/kg, iv administered once in two days for 24 consecutive days measured on day 13 of compound dosing relative to control; assay type: functional
Mus musculus [5] = experiment: Toxicity in human Bel7404 cells xenografted BALB/c mouse assessed as effect on body weight at 1 mg/kg, iv administered once in two days for 24 consecutive days measured on day 1 of compound dosing (reference value: 25.36 +/- 0.97 g); assay type: organism-based; details: in vivo
Mus musculus [6] = experiment: Toxicity in human Bel7404 cells xenografted BALB/c mouse assessed as effect on body weight at 1 mg/kg, iv administered once in two days for 24 consecutive days measured on day 6 of compound dosing (reference value: 25.65 +/- 0.70 g); assay type: organism-based; details: in vivo
Mus musculus [7] = experiment: Toxicity in human Bel7404 cells xenografted BALB/c mouse assessed as effect on body weight at 2 mg/kg, iv administered once in two days for 24 consecutive days measured on day 20 of compound dosing (reference value: 26.43 +/- 0.94 g); assay type: organism-based; details: in vivo
Mus musculus [8] = experiment: Toxicity in human Bel7404 cells xenografted BALB/c mouse assessed as effect on body weight at 0.5 mg/kg, iv administered once in two days for 24 consecutive days measured on day 24 of compound dosing (reference value: 26.29 +/- 1.36 g); assay type: organism-based; details: in vivo
[9] = Plasma concentration in Sprague-Dawley rat at 3 mg/kg, iv administered as bolus measured at 0.5 hrs by LC/MS/MS analysis; assay type: ADME, organism-based
[10] = MRT in Sprague-Dawley rat at 3 mg/kg, iv administered as bolus after 24 hrs by LC/MS/MS analysis; assay type: ADME, organism-based; details: in vivo

With CC(C)C[C@H](NC(=O)[C@H](Cc1ccccc1)NC(=O)N1CCc2ccccc2C1)B(O)O as the molecule, how does the Vd [1] read?
Its Vd is 9.44 L/kg.

What about the clearance [2] of the same molecule?
Its clearance is 55.5 mL/min/kg.

What about the “fold change (FC)” value (BEL-7404 tumor cell line [3]) of the same molecule?
Its value is 1.72.

And the “fold change (FC)” value (BEL-7404 tumor cell line [4])?
The value was 3.18.

And the Activity (Mus musculus [5])?
The Activity was 25.12 g.

And the Activity (Mus musculus [6])?
The Activity was 25.07 g.

What about the Activity (Mus musculus [7]) of the same molecule?
Its Activity is 22.17 g.

And the Activity (Mus musculus [8])?
The Activity was 25.15 g.

And the concentration at 0.5 h [9]?
Its concentration at 0.5 h is 373 ng/mL.

What about the MRT [10] of the same molecule?
The MRT was 1.2 h.
